Results reported in the supplement of paper PMC11061612.

Legend:
Experiment in all cases: combination Emax (second highest fraction inhibited in the dose matrix, 72 h); higher = more inhibition; extreme values may be limits of the assay
[1] = test system: NCI-H2347 (Lung Adenocarcinoma)
Outline: (§1)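 Cell lines grown in DMEM/F12 or RPMI with 10% FBS were plated in 1536-well plates and held 24 hours at 37°C, 5% CO2 before 72 hours of exposure to two-drug dose matrices, with DMSO typically at 0.2%. CellTiter-Glo 2.0 luminescence gave viability, which was converted to inhibition. Vehicle wells were set to 0 and blank wells to 1. Combination Emax is the second-highest inhibition in the matrix, and Bliss excess is the observed combination effect minus the expected EA + EB − EA·EB, where EA and EB are the single-agent effects.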

[2] = test system: JHH-7 (Hepatocellular Carcinoma)
Outline: as §1

[3] = test system: EW-18 (Ewing's Sarcoma)
Outline: as §1

[4] = test system: MFE-319 (Endometrial Carcinoma)
Outline: as §1

[5] = test system: KYSE-50 (Esophageal Squamous Cell Carcinoma)
Outline: as §1

[6] = test system: OVISE (Ovarian Carcinoma)
Outline: as §1

[7] = test system: SCC-9 (Oral Cavity Carcinoma)
Outline: as §1

[8] = test system: KP-2 (Pancreatic Carcinoma)
Outline: as §1

[9] = test system: H-EMC-SS (Chondrosarcoma)
Outline: as §1

[10] = test system: BV-173 (Chronic Myelogenous Leukemia)
Outline: as §1

[11] = test system: DG-75 (Burkitt's Lymphoma)
Outline: as §1

[12] = test system: EMC-BAC-2 (Non-Small Cell Lung Carcinoma)
Outline: as §1

[13] = test system: NCI-H1573 (Lung Adenocarcinoma)
Outline: as §1

[14] = test system: EW-3 (Ewing's Sarcoma)
Outline: as §1

[15] = test system: EW-13 (Ewing's Sarcoma)
Outline: as §1

[16] = test system: SNU-C1 (Colorectal Carcinoma)
Outline: as §1

[17] = test system: SCC-3 (B-Cell Non-Hodgkin's Lymphoma)
Outline: as §1

[18] = test system: NCI-H2405 (Lung Adenocarcinoma)
Outline: as §1

[19] = test system: GI-1 (Glioblastoma)
Outline: as §1

[20] = test system: IMR-5 (Neuroblastoma)
Outline: as §1

SMILES | combination Emax [1] | combination Emax [2] | combination Emax [3] | combination Emax [4] | combination Emax [5] | combination Emax [6] | combination Emax [7] | combination Emax [8] | combination Emax [9] | combination Emax [10] | combination Emax [11] | combination Emax [12] | combination Emax [13] | combination Emax [14] | combination Emax [15] | combination Emax [16] | combination Emax [17] | combination Emax [18] | combination Emax [19] | combination Emax [20]
CN(C)CCCOc1ccc(-c2ccc3ncc4c(c3c2)n(C2CCOCC2)c(=O)n4C)cn1 [AZD0156] + CCN(CCO)CCCOc1ccc2c(Nc3cc(CC(=O)Nc4cccc(F)c4)[nH]n3)ncnc2c1 [AZD2811] (first compound max 1 µM, 7x7, partner max 1 µM) | 0.148 | 0.143 | 0.678 | 0.147 | 0.204 | 0.113 | 0.186 | 0.0724 | 0.367 | 0.975 | 0.365 | 0.253 | 0.106 | 0.34 | 0.332 | 0.205 | 0.445 | 0.106 | 0.411 | 0.967
CC(=O)c1c(C)c2cnc(Nc3ccc(N4CCNCC4)cn3)nc2n(C2CCCC2)c1=O [Palbociclib] + CC1(C)CCC(CN2CCN(c3ccc(C(=O)NS(=O)(=O)c4ccc(NCC5CCOCC5)c([N+](=O)[O-])c4)c(Oc4cnc5[nH]ccc5c4)c3)CC2)=C(c2ccc(Cl)cc2)C1 [Venetoclax] (first compound max 10 µM, 7x7, partner max 1 µM) | 0.14 | 0.132 | 0.656 | 0.172 | 0.233 | 0.104 | 0.13 | 0.056 | 0.284 | 0.848 | 0.705 | 0.243 | 0.284 | 0.599 | 0.0985 | 0.194 | 0.378 | 0.0998 | 0.03 | 0.7
CC1(C)CCC(CN2CCN(c3ccc(C(=O)NS(=O)(=O)c4ccc(NCC5CCOCC5)c([N+](=O)[O-])c4)c(Oc4cnc5[nH]ccc5c4)c3)CC2)=C(c2ccc(Cl)cc2)C1 [Venetoclax] + CN(C)CCCOc1ccc(-c2ccc3ncc4c(c3c2)n(C2CCOCC2)c(=O)n4C)cn1 [AZD0156] (first compound max 1 µM, 7x7, partner max 1 µM) | 0.191 | 0.18 | 0.389 | 0.243 | 0.164 | 0.262 | 0.174 | 0.19 | 0.206 | 0.833 | 0.125 | 0.25 | 0.168 | 0.799 | 0.062 | 0.163 | 0.157 | 0.14 | 0.234 | 0.0957
Cc1cc2ncnn2cc1Nc1ncc2c(n1)n(C1CCOCC1)c(=O)n2C [AZD7648] + CN(C)CCCOc1ccc(-c2ccc3ncc4c(c3c2)n(C2CCOCC2)c(=O)n4C)cn1 [AZD0156] (first compound max 10 µM, 7x7, partner max 1 µM) | 0.336 | 0.177 | 0.391 | 0.311 | 0.164 | 0.366 | 0.24 | 0.0295 | 0.545 | 0.386 | 0.409 | 0.311 | 0.15 | 0.386 | 0.325 | 0.316 | 0.299 | 0.183 | 0.261 | 0.239
CC1(C)CCC(CN2CCN(c3ccc(C(=O)NS(=O)(=O)c4ccc(NCC5CCOCC5)c([N+](=O)[O-])c4)c(Oc4cnc5[nH]ccc5c4)c3)CC2)=C(c2ccc(Cl)cc2)C1 [Venetoclax] + C[C@@H]1COCCN1C2=NC(=NC(=C2)C3(CC3)[S@](=N)(=O)C)C4=C5C=CNC5=NC=C4 [AZD6738] (first compound max 1 µM, 7x7, partner max 10 µM) | 0.402 | 0.285 | 0.67 | 0.837 | 0.719 | 0.677 | 0.342 | 0.277 | 0.347 | 0.954 | 0.781 | 0.612 | 0.579 | 0.844 | 0.671 | 0.366 | 0.938 | 0.305 | 0.918 | 1
COc1nnc2ccc(N3CCC(c4ccc(OCCN5CCN(C)C(=O)[C@H]5C)cc4)CC3)nn12 [AZD5153] + C=CCn1c(=O)c2cnc(Nc3ccc(N4CCN(C)CC4)cc3)nc2n1-c1cccc(C(C)(C)O)n1 [AZD1775] (first compound max 1 µM, partner max 1 µM) | 0.413 | 0.316 | 0.687 | 0.741 | 0.798 | 0.767 | 0.518 | 0.437 | 0.23 | 0.931 | 0.905 | 0.735 | 0.637 | 0.622 | 0.407 | 0.546 | 0.9 | 0.429 | 0.973 | 0.973
COc1cccc(OCCCN)c1-c1cc(Nc2cnc(C#N)cn2)n[nH]1 [Prexasertib] + CN(C)CCCOc1ccc(-c2ccc3ncc4c(c3c2)n(C2CCOCC2)c(=O)n4C)cn1 [AZD0156] (first compound max 1 µM, 7x7, partner max 1 µM) | 0.42 | 0.411 | 0.761 | 0.815 | 0.844 | 0.796 | 0.46 | 0.441 | 0.493 | 0.97 | 0.964 | 0.591 | 0.652 | 0.683 | 0.452 | 0.751 | 1 | 0.406 | 0.966 | 0.963
CC1(C)CCC(CN2CCN(c3ccc(C(=O)NS(=O)(=O)c4ccc(NCC5CCOCC5)c([N+](=O)[O-])c4)c(Oc4cnc5[nH]ccc5c4)c3)CC2)=C(c2ccc(Cl)cc2)C1 [Venetoclax] + Cn1cnc2c(F)c(Nc3ccc(Br)cc3Cl)c(C(=O)NOCCO)cc21 [Selumetinib] (first compound max 1 µM, 7x7, partner max 3 µM) | 0.344 | 0.145 | 0.26 | 0.145 | 0.133 | 0.206 | 0.386 | 0.455 | 0.341 | 0.906 | 0.257 | 0.347 | 0.289 | 0.643 | 0.213 | 0.467 | 0.205 | 0.373 | 0.179 | 0.221
Cc1c2c(nn1C)CSCc1cc(n(C)n1)CSc1cc(c3ccccc3c1)OCCCc1c(C(=O)O)n(C)c3c-2c(Cl)ccc13 [AZD5991] + C[C@@H]1COCCN1C2=NC(=NC(=C2)C3(CC3)[S@](=N)(=O)C)C4=C5C=CNC5=NC=C4 [AZD6738] (first compound max 1 µM, 7x7, partner max 10 µM) | 0.322 | 0.268 | 0.928 | 0.932 | 0.643 | 0.615 | 0.331 | 0.259 | 0.511 | 0.965 | 0.817 | 0.862 | 0.516 | 0.892 | 0.805 | 0.333 | 0.957 | 0.353 | 0.995 | 1
CS(=O)(=O)CCNCc1ccc(-c2ccc3ncnc(Nc4ccc(OCc5cccc(F)c5)c(Cl)c4)c3c2)o1 [Lapatinib] + C[C@@H](Oc1cc(-c2cnn(C3CCNCC3)c2)cnc1N)c1c(Cl)ccc(F)c1Cl [Crizotinib] (first compound max 10 µM, 7x7, partner max 10 µM) | 0.301 | 0.614 | 0.951 | 0.511 | 0.93 | 0.888 | 0.964 | 0.788 | 0.576 | 0.94 | 0.92 | 0.909 | 0.786 | 0.91 | 0.285 | 0.675 | 0.999 | 0.193 | 0.909 | 0.976
COc1cccc(OCCCN)c1-c1cc(Nc2cnc(C#N)cn2)n[nH]1 [Prexasertib] + O=C(c1cc(Cc2n[nH]c(=O)c3ccccc23)ccc1F)N1CCN(C(=O)C2CC2)CC1 [Olaparib] (first compound max 1 µM, 7x7, partner max 10 µM) | 0.378 | 0.442 | 0.764 | 0.811 | 0.75 | 0.689 | 0.464 | 0.289 | 0.31 | 0.994 | 0.827 | 0.44 | 0.608 | 0.815 | 0.698 | 0.663 | 1 | 0.368 | 0.933 | 0.976
COc1nnc2ccc(N3CCC(c4ccc(OCCN5CCN(C)C(=O)[C@H]5C)cc4)CC3)nn12 [AZD5153] + Cn1cnc2c(F)c(Nc3ccc(Br)cc3Cl)c(C(=O)NOCCO)cc21 [Selumetinib] (first compound max 1 µM, 7x7, partner max 10 µM) | 0.6 | 0.512 | 0.59 | 0.579 | 0.697 | 0.626 | 0.75 | 0.54 | 0.368 | 0.936 | 0.862 | 0.738 | 0.755 | 0.629 | 0.315 | 0.83 | 0.93 | 0.521 | 0.705 | 0.906
